Source: patent US10669284B2, “Fused thiazolopyrimidine derivatives as MNKS inhibitors” (LIFEARC, priority 2015, dated 2020)

Assays:
Full-length human MNK1 = biological target: T1, Full-length human MNK1 (Homo sapiens, UniProt Q9BUB5, T385D); assay: MNK1 biochemical IC50 assay (Caliper Mobility Shift Assay); settings: read-out: P(IC50) MNK1 (converted)
T1 construct: GST (N); purchased Carna Biosciences 02-145; host or cells: baculovirus expression system
Excerpt: (§1) The phosphorylated peptide product and unphosphorylated peptide substrate were detected using a Caliper Mobility Shift Assay using the Caliper LabChip EZ Reader II.
(§2) The Caliper Mobility Shift Assay technology is based on the utilisation of a microfluidic chip to measure the conversion of a fluorescent non-phosphorylated peptide substrate to phosphorylated product by electrophoresis separation of substrate and product and detection via Laser-induced fluorescence. The LabChip EZ Reader software calculates the relative heights of substrate and product peaks and reports the peak ratio (Product peak(P) divided by the sum of Product peak(P) and Substrate peak(S)). The percent-conversion is calculated as 100×[(P/(P+S)]. All assays were set up to run in the linear phase with a maximum of 10 percent substrate conversion.
(§3) These were N-terminal GST fusion proteins expressed in baculovirus expression system and purified by glutathione sepharose affinity chromatography. […] All other assay reagents were sourced from Sigma.
Compounds were serially diluted in DMSO to generate a 10-point half log dilution curve with a final top concentration of 100 uM in the assay. […] Compounds were pre-incubated with enzyme and peptide in reaction buffer for 30 mins prior to addition of ATP to initiate the reaction. Final assay concentrations were 3 nM MNK1, 2 uM peptide substrate, 50 uM ATP, 50 mM Hepes pH 7.0, 0.01% BSA, 10 mM MgCl2, 1 mM dithiothrietol.
(§4) The assay incubation times were adjusted depending on the concentration of ATP used. Assays were performed at low (50 uM) and high (1 mM) ATP. The low ATP values were selected to run at Km conditions for the standard assay to allow relative potencies to be compared across other kinases. The high ATP concentration was selected as representative of cellular ATP concentrations, and for an indication of ATP competition, where a significant shift (greater than half log) in apparent potency would be expected compared to Km conditions. All IC50 values reported are the average of at least two independent experiments.

Full-length human MNK2 = biological target: T2, Full-length human MNK2 (Homo sapiens, UniProt Q9HBH9, T379D); assay: MNK2 biochemical IC50 assay (Caliper Mobility Shift Assay); settings: read-out: P(IC50) MNK2 (converted)
T2 construct: GST (N); purchased Carna Biosciences 02-146; host or cells: baculovirus expression system
T2 sequence (Q9HBH9 whole entry T379D): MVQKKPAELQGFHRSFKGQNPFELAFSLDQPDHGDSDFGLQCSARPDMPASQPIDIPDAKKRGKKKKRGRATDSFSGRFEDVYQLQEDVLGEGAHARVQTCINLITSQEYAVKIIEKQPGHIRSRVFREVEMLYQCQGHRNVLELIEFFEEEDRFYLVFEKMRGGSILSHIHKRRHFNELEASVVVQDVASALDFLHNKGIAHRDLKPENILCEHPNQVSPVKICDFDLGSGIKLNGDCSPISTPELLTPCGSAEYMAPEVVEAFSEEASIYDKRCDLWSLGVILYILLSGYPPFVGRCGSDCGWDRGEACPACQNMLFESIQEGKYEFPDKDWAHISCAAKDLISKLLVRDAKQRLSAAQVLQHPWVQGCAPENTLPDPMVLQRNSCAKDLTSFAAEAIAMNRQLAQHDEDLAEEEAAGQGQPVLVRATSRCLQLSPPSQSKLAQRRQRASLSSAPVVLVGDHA
Excerpt: as §1, §2, §3, §4
Reactions were performed as above using 10 nM MNK2 in the assay. Standard assays contained 50 uM ATP and high concentration ATP assays contained 1 mM ATP. […] All other conditions were the same.

[1] = test system: phosphorylation of eIF4E at ser209 in MV4.11 cell line; assay: MNK cellular activity phospho-eIF4E detection assay (Alphascreen Surefire); assay type: cell-based; settings: Homo sapiens; MV4.11 cell line, phospho-eIF4E (ser209) Alphascreen Surefire; read-out: P(IC50) elF4E (converted)
Method: The assay detection is based on the formation of sandwich antibody complexes coupled to donor and acceptor beads. Excitation at 680 nm causes the transfer of a singlet oxygen species between donor and acceptor beads when they are in close proximity by binding to the analyte ([…]), which results in the emission of light at 520-620 nm.
Cells were then lysed and the Alphascreen Surefire protocol followed according to manufacturer's recommendations. 8 ul Acceptor beads (1:50 dilution in kit activation buffer) was added to lysate, shaken 150 rpm for 2 min and incubated for 1.5 hr at room temperature. 3 ul Donor beads (1:20 dilution in kit dilution buffer) were then added, shaken 150 rpm for 2 min and incubated for a further 1.5 hr at room temperature after which the plates were read on Pherastar FS using Alphascreen optic module.
Data were normalised relative to untreated DMSO only controls and curves repeated in duplicate within experiments. Data reported are averages of at least 2 independent experiments.

T1 sequence (Q9BUB5 1-424 isoform Q9BUB5-2 T344D): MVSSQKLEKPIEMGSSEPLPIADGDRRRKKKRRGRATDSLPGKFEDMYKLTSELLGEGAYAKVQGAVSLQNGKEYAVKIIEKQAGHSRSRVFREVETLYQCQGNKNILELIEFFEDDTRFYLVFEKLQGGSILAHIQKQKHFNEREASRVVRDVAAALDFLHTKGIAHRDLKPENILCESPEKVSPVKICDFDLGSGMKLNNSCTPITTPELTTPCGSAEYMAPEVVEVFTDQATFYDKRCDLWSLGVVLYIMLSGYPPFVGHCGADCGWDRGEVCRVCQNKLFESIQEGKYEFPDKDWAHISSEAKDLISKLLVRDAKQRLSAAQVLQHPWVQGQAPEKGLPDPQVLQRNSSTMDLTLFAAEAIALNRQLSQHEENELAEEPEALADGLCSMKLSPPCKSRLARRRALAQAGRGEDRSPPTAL

| SMILES | IC50 (Full-length human MNK1) [µM] | IC50 (Full-length human MNK2) [µM] | IC50 [1] [µM] |
| --- | --- | --- | --- |
| O=C(NCC1CCOCC1)c1nc2c(N3CCc4ccccc43)ncnc2s1 [Example 103, 7-indolin-1-yl-N-(tetrahydropyran-4-ylmethyl)thiazoto[5,4-d]pyrimidine-2-carboxamide] | 0.01 | 0.01 | 0.0631 |
| O=C(NCC1CCNCC1)c1nc2c(Nc3ccc(F)cc3O[C@H]3CCOC3)ncnc2s1 [Example 54, 7-[4-fluoro-2-[(3S)-tetrahydrofuran-3-yl]oxy-anilino]-N-(4-piperidylmethyl)thiazolo[5,4-d]pyrimidine-2-carboxamide] | 0.0794 | 0.1 | 0.2 |
| Fc1ccc2c(c1)CCN2c1ncnc2scnc12 [Example 171, 7-(5-Fluoroindolin-1-yl)thiazolo[5,4-d]pyrimidine] | 0.0794 | 0.0631 | 0.251 |
| CN1CCC(NC(=O)c2nc3c(N4CCc5cc([N+](=O)[O-])ccc54)ncnc3s2)CC1 [Example 45, N-(1-methylpiperidin-4-yl)-7-(5-nitro-2,3-dihydro-1H-indol-1-yl)[1,3]thiazolo[5,4-d]pyrimidine-2-carboxamide] | 0.0158 | 0.02 | 0.0316 |
| O=C(NC1CCOCC1)c1nc2c(N3CC4(CCCC4)c4ccccc43)ncnc2s1 [Example 41, 7-(Spiro[cyclopentane-1,3′-indol]-1′(2′H)-yl)-N-(tetrahydro-2H-pyran-4-yl)[1,3]thiazolo[5,4-d]pyrimidine-2-carboxamide] | 0.0251 | 0.0126 | 0.02 |
| CC1(C)CN(c2ncnc3sc(C(=O)NC4CCOCC4)nc23)c2ccc(F)cc21 [Example 105, 7-(5-Fluoro-3,3-dimethyl-indolin-1-yl)-N-tetrahydropyran-4-yl-thiazolo[5,4-d]pyrimidine-2-carboxamide] | 0.002 | 0.00316 | 0.00251 |
| NCCC1CN(c2ncnc3sc(C(=O)NC4CC4)nc23)c2ccccc21 (stereo not drawn) [Example 164, 7-(3-(2-Aminoethyl)indolin-1-yl)-N-cyclo-propylthiazolo[5,4-d]pyrimidine-2-carboxamide] | 0.00501 | 0.00501 | 0.00501 |
| O=C(NC1CCOCC1)c1nc2c(N3CC(CCN4CCCC4)c4ccccc43)ncnc2s1 (stereo not drawn) [Example 153, 7-[3-(2-pyrrolidin-1-ylethyl)indolin-1-yl]-N-tetrahydropyran-4-yl-thiazolo[5,4-d]pyrimidine-2-carboxamide] | 0.0501 | 0.0501 | 0.1 |
| O=C(NCC1CCNCC1)c1nc2c(N3CCOc4cc(F)ccc43)ncnc2s1 [Example 56, 7-(7-fluoro-2,3-dihydro-1,4-benzoxazin-4-yl)-N-(4-piperidylmethyl)thiazolo[5,4-d]pyrimidine-2-carboxamide] | 1 | 0.794 | 0.794 |
| CC1(C)CN(c2ncnc3sc(C(=O)NCCCO)nc23)c2ccccc21 [Example 163] | 0.01 | 0.00398 | 0.00501 |
| CN(C)CCCNC(=O)c1nc2c(N3CCc4cccc(F)c43)ncnc2s1 [Example 92, N-[3-(dimethylamino)propyl]-7-(7-fluoroindolin-1-yl)thiazolo[5,4-d]pyrimidine-2-carboxamide] | 0.158 | 0.126 | 0.251 |
| O=C(NC1CCOCC1)c1nc2c(N3CC(CCN4CCOCC4)c4cc(F)ccc43)ncnc2s1 (stereo not drawn) [Example 151, 7-[5-fluoro-3-(2-morpholinoethyl)indolin-1-yl]-N-tetrahydropyran-4-yl-thiazolo[5,4-d]pyrimidine-2-carboxamide] | 0.1 | 0.1 | 0.0316 |
| CNCCC1CN(c2ncnc3sc(C(=O)NC4CCOCC4)nc23)c2ccccc21 (stereo not drawn) [Example 115, 7-[3-[2-(Methylamino)ethyl]indolin-1-yl]-N-tetrahydropyran-4-yl-thiazolo[5,4-d]pyrimidine-2-carboxamide] | 0.0316 | 0.0158 | 0.126 |
| O=C(NC1CCOCC1)c1nc2c(N3CCc4cccc(F)c43)ncnc2s1 [Example 90, 7-(7-Fluoroindolin-1-yl)-N-tetrahydropyran-4-yl-thiazolo[5,4-d]pyrimidine-2-carboxamide] | 0.126 | 0.126 | 0.158 |
| CC(C)Oc1cc(F)ccc1Nc1ncnc2sc(C(=O)NCCCO)nc12 [Example 8, 7-(4-fluoro-2-isopropoxy-anilino)-N-(3-hydroxypropyl)thiazolo[5,4-d]pyrimidine-2-carboxamide] | 0.0501 | 0.0501 | 0.0631 |
| O=C(NCC1CCNCC1)c1nc2c(N3c4ccccc4C[C@H]3CO)ncnc2s1 [Example 137] | 0.2 | 0.126 | 0.158 |
| CC1CN(c2ncnc3sc(C(=O)NC4CCOCC4)nc23)c2ccccc21 (stereo not drawn) [Example 125, 7-(3-Methylindolin-1-yl)-N-tetrahydropyran-4-yl-thiazolo[5,4-d]pyrimidine-2-carboxamide] | 0.00316 | 0.00398 | 0.00398 |
| Cc1ccc2c(c1)CCN2c1ncnc2sc(C(=O)NCC3CCNCC3)nc12 [Example 170, 7-(5-Methylindolin-1-yl)-N-(4-piperidylmethyl)thiazolo[5,4-d]pyrimidine-2-carboxamide] | 0.0631 | 0.0251 | 0.0794 |
| O=C(NCC1CCNCC1)c1nc2c(N3CCc4cc(Br)ccc43)ncnc2s1 [Example 169, 7-(5-Bromoindolin-1-yl)-N-(4-piperidylmethyl)thiazolo[5,4-d]pyrimidine-2-carboxamide] | 0.00794 | 0.00794 | 0.0316 |
| O=C(NC1CC1)c1nc2c(N3CCc4ccccc43)ncnc2s1 [Example 99, N-cyclopropyl-7-indolin-1-yl-thiazolo[5,4-d]pyrimidine-2-carboxamide] | 0.0126 | 0.00501 | 0.0158 |
| CC(C)Oc1cc(F)ccc1Nc1ncnc2sc(C(=O)NCC3CCN(C)CC3)nc12 [Example 36, 7-{[4-fluoro-2-(propan-2-yloxy)phenyl]amino}-N-[(1-methylpiperidin-4-yl)methyl][1,3]thiazolo[5,4-d]pyrimidine-2-carboxamide] | 0.0501 | 0.0501 | 0.0501 |
| CC(C)(O)c1nc2c(N3CCc4cc(F)ccc43)ncnc2s1 [Example 82, 2-[7-(5-Fluoroindolin-1-yl)thiazolo[5,4-d]pyrimidin-2-yl]propan-2-ol] | 0.0316 | 0.0316 | 0.158 |
| CC(C)Oc1cc(F)ccc1Nc1ncnc2sc(C(=O)NC3CCN(C)CC3)nc12 [Example 32, 7-{[4-fluoro-2-(propan-2-yloxy)phenyl]amino}-N-(1-methylpiperidin-4-yl)[1,3]thiazolo[5,4-d]pyrimidine-2-carboxamide] | 0.0501 | 0.0398 | 0.0398 |
| CC(C)Oc1cc(F)ccc1Nc1ncnc2sc(CO)nc12 [Example 48, [7-(4-Fluoro-2-isopropoxy-anilino)thiazolo[5,4-d]pyrimidin-2-yl]methanol] | 0.0631 | 0.0398 | 0.02 |
| O=C(NCC1CCNCC1)c1nc2c(Nc3ccc(F)cc3OC3CCCC3)ncnc2s1 [Example 51, 7-[2-(cyclopentoxy)-4-fluoro-anilino]-N-(4-piperidylmethyl)thiazolo[5,4-d]pyrimidine-2-carboxamide] | 0.126 | 0.1 | 0.126 |
| CN(C)C(=O)c1nc2c(N3CCc4cc(F)ccc43)ncnc2s1 [Example 70, 7-(5-fluoroindolin-1-yl)-N,N-dimethyl-thiazolo[5,4-d]pyrimidine-2-carboxamide] | 0.0501 | 0.02 | 0.0631 |
